# Target: NAE (heterodimer of APPBP1 and UBA3) (Homo sapiens (Human), UniProt Q8TBC4)
# Experiment: Nedd8 conjugation inhibitory activity (AlphaScreen assay)
# Assay type: biochemical
# Details: purified NAE, GST-UBC12, Biotin-Nedd8, ATP
# NAE (heterodimer of APPBP1 and UBA3), sequence (Q8TBC4 whole entry): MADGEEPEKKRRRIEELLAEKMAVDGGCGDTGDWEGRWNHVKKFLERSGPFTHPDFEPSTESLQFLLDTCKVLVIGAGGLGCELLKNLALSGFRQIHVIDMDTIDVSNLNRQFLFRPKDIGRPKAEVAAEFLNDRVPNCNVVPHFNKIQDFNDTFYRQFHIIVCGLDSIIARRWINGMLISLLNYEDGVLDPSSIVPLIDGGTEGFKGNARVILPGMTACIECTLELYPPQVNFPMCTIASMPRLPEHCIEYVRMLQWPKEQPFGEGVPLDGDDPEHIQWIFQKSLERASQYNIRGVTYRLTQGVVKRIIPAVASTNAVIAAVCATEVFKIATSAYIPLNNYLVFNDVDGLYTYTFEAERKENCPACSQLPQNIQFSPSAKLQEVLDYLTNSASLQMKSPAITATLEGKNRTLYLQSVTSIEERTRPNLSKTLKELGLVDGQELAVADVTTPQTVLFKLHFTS
# NAE (heterodimer of APPBP1 and UBA3), sequence (Q13564 whole entry partner): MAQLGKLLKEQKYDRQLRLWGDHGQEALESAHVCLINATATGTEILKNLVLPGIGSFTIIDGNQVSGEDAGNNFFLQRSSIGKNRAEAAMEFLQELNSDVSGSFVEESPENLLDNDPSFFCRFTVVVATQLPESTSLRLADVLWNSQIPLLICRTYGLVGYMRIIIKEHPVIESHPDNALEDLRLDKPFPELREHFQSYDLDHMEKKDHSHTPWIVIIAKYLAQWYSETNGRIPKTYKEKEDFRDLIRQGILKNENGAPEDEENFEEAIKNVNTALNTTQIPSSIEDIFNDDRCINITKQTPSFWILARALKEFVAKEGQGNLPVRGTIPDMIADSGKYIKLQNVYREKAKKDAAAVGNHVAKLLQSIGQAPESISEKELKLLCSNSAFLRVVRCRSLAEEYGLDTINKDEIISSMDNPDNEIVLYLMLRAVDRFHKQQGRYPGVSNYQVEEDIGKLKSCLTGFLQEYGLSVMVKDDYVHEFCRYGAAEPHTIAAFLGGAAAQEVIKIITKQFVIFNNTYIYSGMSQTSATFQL
row,SMILES,IC50
1,"COc1cccc(F)c1C#Cc1cn([C@@H]2C[C@H](CNS(N)(=O)=O)[C@@H](O)[C@H]2O)c2ncnc(N)c12 [Example 95, 4-Amino-7-[(1R,2S,3R,4R)-2,3-dihydroxy-4-[(sulfamoylamino)methyl]cyclopentyl]-5-[2-(2-fluoro-6-methoxy-phenyl)ethynyl]pyrrolo[2,3-d]pyrimidine]",0.013 µM
2,"Nc1ncnc2c1c(C#Cc1cccc3cccnc13)cn2[C@@H]1C[C@H](CNS(N)(=O)=O)[C@@H](O)[C@H]1O [Example 96, 8-[2-[4-Amino-7-[(1R,2S,3R,4R)-2,3-dihydroxy-4-[(sulfamoylamino)methyl]cyclopentyl]pyrrolo[2,3-d]pyrimidin-5-yl]ethynyl]quinoline]",0.0092 µM
3,"CSc1cccc(F)c1C#Cc1cn([C@@H]2C[C@H](CNS(N)(=O)=O)[C@@H](O)[C@H]2O)c2ncnc(N)c12 [Example 98, 4-Amino-7-[(1R,2S,3R,4R)-2,3-dihydroxy-4-[(sulfamoylamino)methyl]cyclopentyl]-5-[2-(2-fluoro-6-methylsulfanyl-phenyl)ethynyl]pyrrolo[2,3-d]pyrimidine]",0.0083 µM
4,"CCSc1cccc(F)c1C#Cc1cn([C@@H]2C[C@H](CNS(N)(=O)=O)[C@@H](O)[C@H]2O)c2ncnc(N)c12 [Example 99, 4-Amino-7-[(1R,2S,3R,4R)-2,3-dihydroxy-4-[(sulfamoylamino)methyl]cyclopentyl]-5-[2-(2-ethylsulfanyl-6-fluoro-phenyl)ethynyl]pyrrolo[2,3-d]pyrimidine]",0.019 µM
5,"Nc1ncnc2c1c(C#Cc1c(F)cc(N3CCOCC3)cc1F)cn2[C@@H]1C[C@H](CNS(N)(=O)=O)[C@@H](O)[C@H]1O [Example 101, 4-[4-[2-[4-amino-7-[(1R,2S,3R,4R)-2,3-dihydroxy-4-[(sulfamoylamino)methyl]cyclopentyl]pyrrolo[2,3-d]pyrimidin-5-yl]ethynyl]-3,5-difluoro-phenyl]morpholine]",0.0076 µM
6,"CN1CCN(c2cc(F)c(C#Cc3cn([C@@H]4C[C@H](CNS(N)(=O)=O)[C@@H](O)[C@H]4O)c4ncnc(N)c34)c(F)c2)CC1 [Example 103, 4-Amino-5-[2-[2,6-difluoro-4-(4-methylpiperazin-1-yl)phenyl]ethynyl]-7-[(1R,2S,3R,4R)-2,3-dihydroxy-4-[(sulfamoylamino)methyl]cyclopentyl]pyrrolo[2,3-d]pyrimidine]",0.013 µM
7,"Nc1ncnc2c1c(C#Cc1c(F)cc(OCn3cccn3)cc1F)cn2[C@@H]1C[C@H](CNS(N)(=O)=O)[C@@H](O)[C@H]1O [Example 104, 4-Amino-5-[2-[2,6-difluoro-4-(pyrazol-1-ylmethoxy)phenyl]ethynyl]-7-[(1R,2S,3R,4R)-2,3-dihydroxy-4-[(sulfamoylamino)methyl]cyclopentyl]pyrrolo[2,3-d]pyrimidine]",0.0089 µM
8,"CCOc1cc(N2CCCCC2)cc(F)c1C#Cc1cn([C@@H]2C[C@H](CNS(N)(=O)=O)[C@@H](O)[C@H]2O)c2ncnc(N)c12 [Example 106, 4-Amino-7-[(1R,2S,3R,4R)-2,3-dihydroxy-4-[(sulfamoylamino)methyl]cyclopentyl]-5-[2-[2-ethoxy-6-fluoro-4-(1-piperidyl)phenyl]ethynyl]pyrrolo[2,3-d]pyrimidine]",0.028 µM
9,"CCOc1cc(N2C3CCC2COC3)cc(F)c1C#Cc1cn([C@@H]2C[C@H](CNS(N)(=O)=O)[C@@H](O)[C@H]2O)c2ncnc(N)c12 [Example 110, 8-[4-[2-[4-Amino-7-[(1R,2S,3R,4R)-2,3-dihydroxy-4-[(sulfamoylamino)methyl]cyclopentyl]pyrrolo[2,3-d]pyrimidin-5-yl]ethynyl]-3-ethoxy-5-fluoro-phenyl]-3-oxa-8-azabicyclo[3,2,1]octane]",0.013 µM
10,"CCOc1cc(N2CCOCC2)cc(F)c1C#Cc1cn([C@@H]2C[C@H](CNS(N)(=O)=O)[C@@H](O)[C@H]2O)c2ncnc(N)c12 [Example 112, 4-[4-[2-[4-Amino-7-[(1R,2S,3R,4R)-2,3-dihydroxy-4-[(sulfamoylamino)methyl]cyclopentyl]pyrrolo[2,3-d]pyrimidin-5-yl]ethynyl]-3-ethoxy-5-fluoro-phenyl]morpholine]",0.015 µM
11,"Nc1ncnc2c1c(C#Cc1c(F)cc(N3CC[C@@H](F)C3)cc1F)cn2[C@@H]1C[C@H](CNS(N)(=O)=O)[C@@H](O)[C@H]1O [Example 115, 4-Amino-5-[2-[2,6-difluoro-4-[(3R)-3-fluoropyrrolidin-1-yl]phenyl]ethynyl]-7-[(1R,2S,3R,4R)-2,3-dihydroxy-4-[(sulfamoylamino)methyl]cyclopentyl]pyrrolo[2,3-d]pyrimidine]",0.004 µM
12,"Nc1ncnc2c1c(C#Cc1cccc3c1S(=O)(=O)CC3)cn2[C@@H]1C[C@H](CNS(N)(=O)=O)[C@@H](O)[C@H]1O [Example 117, 4-Amino-7-[(1R,2S,3R,4R)-2,3-dihydroxy-4-[(sulfamoylamino)methyl]cyclopentyl]-5-[2-(1,1-dioxo-2,3-dihydrobenzothiophen-7-yl)ethynyl]pyrrolo[2,3-d]pyrimidine]",0.0043 µM
13,"Nc1ncnc2c1c(C#Cc1c(F)cc(N3CCC3)cc1F)cn2[C@@H]1C[C@H](CNS(N)(=O)=O)[C@@H](O)[C@H]1O [Example 118, 4-Amino-5-[2-[4-(azetidin-1-yl)-2,6-difluoro-phenyl]ethynyl]-7-[(1R,2S,3R,4R)-2,3-dihydroxy-4-[(sulfamoylamino)methyl]cyclopentyl]pyrrolo[2,3-d]pyrimidine]",0.0068 µM
14,"Nc1ncnc2c1c(C#Cc1c(F)cc(N3CCC(O)CC3)cc1F)cn2[C@@H]1C[C@H](CNS(N)(=O)=O)[C@@H](O)[C@H]1O [Example 119, 4-Amino-5-[2-[2,6-difluoro-4-(4-hydroxy-1-piperidyl)phenyl]ethynyl]-7-[(1R,2S,3R,4R)-2,3-dihydroxy-4-[(sulfamoylamino)methyl]cyclopentyl]pyrrolo[2,3-d]pyrimidine]",0.0042 µM
15,"Nc1ncnc2c1c(C#Cc1cccc3c1S(=O)(=O)CCC3)cn2[C@@H]1C[C@H](CNS(N)(=O)=O)[C@@H](O)[C@H]1O [Example 123, 4-Amino-7-[(1R,2S,3R,4R)-2,3-dihydroxy-4-[(sulfamoylamino)methyl]cyclopentyl]-5-[2-(1,1-dioxo-3,4-dihydro-2H-thiochromen-8-yl)ethynyl]pyrrolo[2,3-d]pyrimidine]",0.0091 µM
16,"CCOc1cccc(F)c1C#Cc1cn([C@H]2C[C@H](O)[C@@H](CNS(N)(=O)=O)O2)c2ncnc(N)c12 [Example 127, 4-Amino-5-[2-(2-ethoxy-6-fluoro-phenyl)ethynyl]-7-[(2R,4S,5R)-4-hydroxy-5-[(sulfamoylamino)methyl]tetrahydrofuran-2-yl]pyrrolo[2,3-d]pyrimidine]",0.019 µM
17,"CSc1cccc(F)c1C#Cc1cn([C@@H]2C=C(CNS(N)(=O)=O)[C@@H](O)[C@H]2O)c2ncnc(N)c12 [Example 130, 4-Amino-7-[(1R,4R,5S)-4,5-dihydroxy-3-[(sulfamoylamino)methyl]cyclopent-2-en-1-yl]-5-[2-(2-fluoro-6-methylsulfanyl-phenyl)ethynyl]pyrrolo[2,3-d]pyrimidine]",0.004 µM
18,"Nc1ncnc2c1c(C#Cc1ccccc1)cn2[C@H]1C[C@H](O)[C@@H](COS(N)(=O)=O)O1 [Example 134, [(2R,3S,5R)-5-[4-Amino-5-(2-phenylethynyl)pyrrolo[2,3-d]pyrimidin-7-yl]-3-hydroxy-tetrahydrofuran-2-yl]methyl sulfamate]",0.018 µM
19,"Cc1ccc(Cn2cc(-c3cn([C@H]4C[C@H](O)[C@@H](COS(N)(=O)=O)O4)c4ncnc(N)c34)cn2)cc1C [Example 137, [(2R,3S,5R)-5-[4-Amino-5-[1-[(3,4-dimethylphenyl)methyl]pyrazol-4-yl]pyrrolo[2,3-d]pyrimidin-7-yl]-3-hydroxy-tetrahydrofuran-2-yl]methyl sulfamate]",0.019 µM
20,"Cc1ccc(Cn2cc(-c3cn([C@@H]4C[C@H](COS(N)(=O)=O)[C@@H](O)C4)c4ncnc(N)c34)cn2)cc1C [Example 138, [(1R,2S,4R)-4-[4-Amino-5-[1-[(3,4-dimethylphenyl)methyl]pyrazol-4-yl]pyrrolo[2,3-d]pyrimidin-7-yl]-2-hydroxy-cyclopentyl]methyl sulfamate]",0.0065 µM
21,"Cc1ccccc1-c1nc(-c2cn([C@H]3C[C@H](O)[C@@H](COS(N)(=O)=O)O3)c3ncnc(N)c23)cs1 [Example 139, [(2R,3S,5R)-5-[4-Amino-5-[2-(o-tolyl)thiazol-4-yl]pyrrolo[2,3-d]pyrimidin-7-yl]-3-hydroxy-tetrahydrofuran-2-yl]methyl sulfamate]",0.017 µM
22,"CCS(=O)(=O)c1cccc(F)c1C#Cc1cn([C@@H]2C[C@H](CNS(N)(=O)=O)[C@@H](O)[C@H]2O)c2ncnc(N)c12 [Example 142, 4-Amino-7-[(1R,2S,3R,4R)-2,3-dihydroxy-4-[(sulfamoylamino)methyl]cyclopentyl]-5-[2-(2-ethylsulfonyl-6-fluoro-phenyl)ethynyl]pyrrolo[2,3-d]pyrimidine]",0.009 µM

# Target: carbonic anhydrase II (Homo sapiens (Human), UniProt P00918)
# Experiment: Carbonic anhydrase II enzyme activity inhibition (4-NPA esterase activity)
# Assay type: biochemical
# Details: 4-nitrophenyl acetate esterase activity, absorbance at 405 nm
row,SMILES,IC50
1,"Nc1ncnc2c1c(C#Cc1ccc(OCc3ccccc3)cc1)cn2[C@@H]1O[C@H](CNS(N)(=O)=O)[C@@H](O)[C@H]1O [Example 3, 4-Amino-5-[2-(4-benzyloxyphenyl)ethynyl]-7-[(2R,3R,4S,5R)-3,4-dihydroxy-5-[(sulfamoylamino)methyl]tetrahydrofuran-2-yl]pyrrolo[2,3-d]pyrimidine]",> 1 µM
2,"Nc1ncnc2c1c(C#Cc1cccc3ccccc13)cn2[C@@H]1O[C@H](CNS(N)(=O)=O)[C@@H](O)[C@H]1O [Example 6, 4-Amino-7-[(2R,3R,4S,5R)-3,4-dihydroxy-5-[(sulfamoylamino)methyl]tetrahydrofuran-2-yl]-5-[2-(1-naphthyl)ethynyl]pyrrolo[2,3-d]pyrimidine]",> 1 µM
3,"Nc1ncnc2c1c(-c1coc(-c3ccccc3)n1)cn2[C@@H]1O[C@H](CNS(N)(=O)=O)[C@@H](O)[C@H]1O [Example 12, 4-[4-Amino-7-[(2R,3R,4S,5R)-3,4-dihydroxy-5-[(sulfamoylamino)methyl]tetrahydrofuran-2-yl]pyrrolo[2,3-d]pyrimidin-5-yl]-2-phenyl-oxazol]",> 1 µM

# Source: patent US9963456B2, “Pyrrolopyrimidine compound or salt thereof and compositions containing the pyrrolopyrimidine compound or salt thereof” (TAIHO PHARMACEUTICAL CO., LTD., priority 2014, dated 2018)
